A short description of this data set: gradient 5% acetonitrile 3 min, to 50% in 2 min, to 85% in 15 min, held 3 min, 100 µL/min. To be noted: column: Zorbax Extend-C18 2.1 x 50 mm; eluents: water / acetonitrile, 0.1% formic acid. In outline:
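Over 3 months, pure standards in mixtures of ~100 molecules were run by HPLC coupled to a quadrupole time-of-flight mass spectrometer in positive and negative ionization mode. The column was a Zorbax Extend-C18 (2.1 × 50 mm, 1.8 μm) at 100 μL/min, eluted with water and acetonitrile each holding 0.1% formic acid, with 40 μL dead and 900 μL dwell volumes. Retention time was determined from adduct peaks chosen by software and checked manually.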
The compound `CCCCOc1ccc(S(=O)(=O)Nc2ccc(-c3cn4ccc(C)nc4n3)cc2)cc1` gave an RP-LC retention time of 776 s. Compound `CCc1ccc(-c2cc3c(=O)n(Cc4noc(CN5CCN(C)CC5)n4)ccn3n2)cc1` yielded an RP-LC retention time of 647 s.

For `CCc1ccc(NC(=O)c2cc(=O)n(C)c3c2c(=O)n(C)c(=O)n3C)cc1`, the RP-LC retention time came to 870 s.

`Cc1nn(-c2ccccc2)c(C)c1S(=O)(=O)N1CCC(C(=O)NC2CCCCC2)CC1` gave an RP-LC retention time of 912 s. In turn, `O=S(=O)(c1ccc(-c2noc(-c3cccc(F)c3)n2)cc1)N1CCCCC1` registered an RP-LC retention time of 1280 s. The compound `Cc1csc(-c2cn(CC(=O)Nc3ccc(C)c(C)c3)cn2)n1` registered an RP-LC retention time of 722 s. Take `Cn1c(=O)c(=O)n(C)c2cc(N3CCCC3)c(NC(=O)Cc3ccccc3Cl)cc21`: the RP-LC retention time came to 793 s.

`Cc1ccc(NC(=O)N2CCC3(CC2)NC(=O)c2ccccc2O3)cc1C` returned an RP-LC retention time of 812 s.

In the case of `Cc1ccc(C)c(NS(=O)(=O)c2cc3n(c2)CCN(CC(C)C)C3=O)c1`, the RP-LC retention time is 848 s.

Take `C=Cc1ccc(CSc2ccc(-n3nc4c(c3C)CCC4)nn2)cc1`: the RP-LC retention time was determined as 1070 s. The compound `Cc1[nH]c(-c2ccc(Cl)cc2)cc1C(=O)NC1CCCC1` registered an RP-LC retention time of 947 s. `CCC1CN(C(=O)N2CCC(C(=O)NCCN3CCOCC3)CC2)c2ccccc2O1` (centres undefined) displayed an RP-LC retention time of 630 s. Consider `COc1ccc(N2CCN(C(=O)NC3CCOCC3)CC2)cc1`, for which the RP-LC retention time turned out to be 599 s.

As for `COc1ccc(-c2nc(N3CCOCC3)c3ccccc3n2)cc1`, the RP-LC retention time was 669 s. Compound `COc1ccc(Cl)cc1NC(=O)CSc1nnc2c3cc(-c4ccc(C)cc4)nn3ccn12` came in with an RP-LC retention time of 1040 s. Compound `Cn1cccc1C(=O)N1CC(c2nc(CCOC3CCCC3)no2)C1` returned an RP-LC retention time of 845 s. Regarding `CC1Cn2cc(C(=O)NCCCN3CCOCC3)c(=O)c3c(Cl)ccc(c32)O1` (centres undefined), the RP-LC retention time was 624 s. `c1ccc(-c2nc(-c3ccccn3)nc(-c3ccccn3)n2)nc1` returned an RP-LC retention time of 644 s. The figure for `Cn1cc2c3c(cccc31)CN(C(=O)c1ccc(F)c(Cl)c1)CC2` is 1070 s; for `N#Cc1ccccc1CN1CC[C@@H]2CN(Cc3cccnc3)[C@@H]2C1` it is 556 s.

Consider `CC(C)NC(=O)c1ccc(OCC2CCCN(C(=O)c3ccc(C#N)cc3)C2)cc1` (centres undefined), for which the RP-LC retention time amounted to 800 s. Next, `CCOc1ccc(-c2ccc(=O)n(CCCC(=O)Nc3ccccc3SC)n2)cc1`: 853 s; `Cc1c(Cl)cccc1Nc1c(-c2ccc(Br)cc2)nc2cnccn12`: 1160 s; `CCC(=O)N1CCc2cc(N3CC(C(=O)Nc4ccc(C)cc4F)CC3=O)ccc21` (centres undefined): 778 s. Take `O=S(=O)(c1ccc(Br)cc1)N1CCc2nc(-c3ccc(F)cc3)ncc2C1`: the RP-LC retention time is 1170 s. In the case of `COc1ccccc1CNC(=O)c1cn2ccccc2n1`, the RP-LC retention time came out at 665 s. Regarding `CC(C)n1c(SCC(=O)N2CCCC2)nnc1-c1ccc2c(c1)OCCCO2`, the RP-LC retention time amounted to 671 s. The compound `Cc1cnc(C(=O)N2CC(c3nc(CCOCC4CC4)no3)C2)cn1` returned an RP-LC retention time of 706 s.

For `COc1ccccc1Cc1noc(C2CN(C(=O)c3ccc(Cl)s3)C2)n1`, the RP-LC retention time came to 892 s.

In the case of `CCCCS(=O)(=O)N1CCN(c2ccc(Nc3cc(C)ccn3)nn2)CC1`, the RP-LC retention time is 585 s.

Consider `Cc1ccc(CN2CCC(CNC(=O)c3c(C)oc4ncnc(N5CCOCC5)c34)C2)cc1` (centres undefined), for which the RP-LC retention time came out at 853 s.

With `Cn1ccnc1C(=O)N1CCC(Cc2noc(C3CC3)n2)C1` (centres undefined), the RP-LC retention time is 590 s. With `O=C(Nc1ccccc1)c1nnc(CCCC(=O)N2CCN(c3ccccn3)CC2)s1`, the RP-LC retention time was determined as 638 s. In turn, `Cc1ccc(CNC(=O)c2ccc3c(c2)CCN3C(=O)C2CC2)cc1` yielded an RP-LC retention time of 824 s. Take `O=C(NCCc1noc(C2CC2)n1)c1ccc(Cl)s1`: the RP-LC retention time was determined as 795 s.

`CCCN1CCN(C(=O)C2CCCN(S(=O)(=O)c3cc(-c4noc(C)n4)cs3)C2)CC1` (centres undefined) registered an RP-LC retention time of 638 s. Compound `CCN1C(=O)COc2ccc(-c3noc(-c4cccc(NC(C)=O)c4)n3)cc21` came in with an RP-LC retention time of 848 s.

`COc1ccccc1C(=O)Nc1c2c(nn1C(C)(C)C)CS(=O)(=O)C2`: the RP-LC retention time is 740 s.

On to `Cc1nn(C)cc1CN(C)C(=O)c1ccc(-c2ccccc2)cc1`, for which the RP-LC retention time amounted to 738 s.

Compound `COc1ccc(CNC(=O)C2=C3CCCN3c3ccc(F)cc3S2(=O)=O)cc1OC` had an RP-LC retention time of 764 s.

Compound `O=C(NCCN1CCN(c2ccccc2F)CC1)C1CCCN(c2nc3cccnc3s2)C1` (centres undefined) came in with an RP-LC retention time of 632 s. Turning to `O=C(NCC1CCN(S(=O)(=O)C2CC2)CC1)c1ccccn1`, the RP-LC retention time is 652 s. Compound `COc1ccc(CNC(=O)Cn2nc(C(=O)N3CCCC3)c3ccccc32)cc1` came in with an RP-LC retention time of 773 s.

As for `Cc1cccc(-c2noc(C3CCCN3C(=O)Nc3cccc(F)c3)n2)c1` (centres undefined), the RP-LC retention time came out at 1050 s.

For `CC(C)CCNC(=O)C1CCCN(c2nc3ccsc3c(=O)n2-c2ccc(F)cc2)C1` (centres undefined), the RP-LC retention time was 884 s. As for `CCOc1cccc(=O)c2c(C)n(-c3nc(-c4ccc(OC)cc4)c(C)s3)c(C)c12`, the RP-LC retention time was found to be 1160 s. Next, `Cc1ccccc1Cn1c(CN2CCC(C(=O)N3CCCC3)CC2)cc2ccccc21`: 757 s; `O=C(NCc1ccccn1)c1ccc2c(c1)N(CC(=O)N1CCCC1)C(=O)CO2`: 573 s. `COc1ccc(NC(=O)c2cnc3c(c2)c(=O)n(C)c(=O)n3-c2ccc(F)cc2)cc1` had an RP-LC retention time of 856 s. Regarding `CC(NC(=O)CCNc1c(-c2cccc(F)c2)nc2cnccn12)c1cccs1` (centres undefined), the RP-LC retention time amounted to 728 s.

Compound `Cc1sc(-c2nnc(C3CC3)o2)cc1NC(=O)c1n[nH]c2c1CCCC2` displayed an RP-LC retention time of 916 s.

`Cc1cc(Cl)ccc1NS(=O)(=O)c1cc(-c2nc(C(C)(C)C)cs2)cs1` returned an RP-LC retention time of 1360 s. The compound `O=C(CSc1nc2ccccc2[nH]c1=O)Nc1ccccc1` gave an RP-LC retention time of 699 s.

On to `Cn1c(=O)c2c(C(=O)N3CCN(c4cccc(C(F)(F)F)c4)CC3)cc(=O)n(C)c2n(C)c1=O`, for which the RP-LC retention time worked out at 943 s. `CC1CC(C)CN(c2nccn3c(=O)n(CC(=O)Nc4ccc(F)cc4F)nc23)C1` (centres undefined) yielded an RP-LC retention time of 902 s. For `Cc1cccc(-c2nc3nc(C)cc(N(CCO)Cc4ccccc4)n3n2)c1`, the RP-LC retention time amounted to 815 s. `Cc1ccc(S(=O)(=O)N2CC3CN(C(=O)COc4cccc(C)c4)CC(C2)O3)cc1` displayed an RP-LC retention time of 928 s. As to `Cc1c(CNCCc2ccco2)c(C(=O)O)c(C)n1Cc1ccc(F)cc1`, the RP-LC retention time stood at 709 s. The compound `O=C(CN1CC=C(c2cnn(-c3ccccc3)c2)CC1)NCC1CCCO1` (centres undefined) yielded an RP-LC retention time of 612 s. `COc1cc(NC(=O)C2CCN(c3c(C(=O)N4CCC(C)CC4)cnc4snc(C)c34)CC2)cc(OC)c1` had an RP-LC retention time of 1010 s. For the compound `N#CCc1nc(-c2cc3ccccc3o2)cs1`, the RP-LC retention time is 860 s.

Consider `CCS(=O)(=O)N1CCCN(C2=NS(=O)(=O)C(c3ccccc3)=C2C)CC1`, for which the RP-LC retention time was found to be 751 s. `COc1ccc2nc(NC(=O)Cc3csc4nc(-c5ccc(C)c(C)c5)cn34)sc2c1` returned an RP-LC retention time of 885 s.

`Cc1ccc(NC(=O)N2CC(n3cnnc3-c3ccccc3)C2)cc1C` had an RP-LC retention time of 715 s. `O=c1c2cc3c(cc2nc(SCc2nc(-c4cccc(F)c4)no2)n1CC1CCCO1)OCO3` (centres undefined) registered an RP-LC retention time of 1110 s. In the case of `O=C(CSc1ccc(-c2ccc3c(c2)OCO3)nn1)c1cccs1`, the RP-LC retention time came out at 854 s. Regarding `NC(=O)c1oc2ccccc2c1NC(=O)C(=O)NCc1ccc2c(c1)OCO2`, the RP-LC retention time was determined as 758 s. The compound `Cc1nc(-c2cccnc2)nc2c1CC(=O)N2C(C)C` returned an RP-LC retention time of 654 s. `Cc1oc(C2CCN(C(=O)Nc3ccc(F)cc3F)CC2)nc1C(=O)N1CCCC1` came in with an RP-LC retention time of 744 s.

For the compound `COc1ccc(-c2nnc(CC(=O)N3CCCC3)o2)cc1`, the RP-LC retention time is 677 s.

Turning to `CCOC(=O)c1cc(S(=O)(=O)N2CCN(c3ncccn3)CC2)[nH]n1`, the RP-LC retention time came to 766 s. Next, `COc1ccc(NC(=O)N2[C@H]3CC[C@@H]2c2cnc(C)nc2C3)c(C)c1`: 645 s; `CCCn1cc(C(=O)NCCCOC)c(S(=O)(=O)N2CCN(c3ccccc3Cl)CC2)n1`: 1020 s; `CCN1C(=O)COc2ccc(-c3noc(-c4cc(OC)c(OC)c(OC)c4)n3)cc21`: 1060 s. Compound `CCOC(=O)CNC(=O)N1CCc2cc(-c3ccc(C(=O)N4CCOCC4)cc3)ccc21` registered an RP-LC retention time of 723 s. Compound `COc1ccc(-c2noc(Cn3ccn4nc(-c5ccc(C)cc5)cc4c3=O)n2)cc1OC` gave an RP-LC retention time of 986 s.

As for `Cc1nn(CC(=O)N2CCN(C)CC2)c(=O)c2cc(-c3ccccc3)nn12`, the RP-LC retention time came out at 626 s. With `O=C(COc1ccccc1F)Nc1ccc2c(c1)CN(C(=O)c1ccco1)CC2`, the RP-LC retention time was determined as 770 s. The figure for `O=C(NCC1CCOCC1)c1ccc2[nH]ccc2c1` is 742 s.

Values taken from the METLIN SMRT retention time set (Domingo-Almenara et al. 2019).
